# In patent US20260083714A1, “DOSING REGIMEN FOR TREATING PKU WITH A PIPERIDINE INHIBITOR OF SLC6A19 FUNCTION” (Jnana Therapeutics Inc., priority 2022, published 2026):
# Like-named read-outs stand apart in the source and are kept apart here.
# How the values were obtained:
# SLC6A19 = target: T1, SLC6A19 (Homo sapiens, UniProt Q695T7); experiment: 24 h excretion of phenylalanine and Hartnup amino acids at Day 1, 7 and 14 of suspension administration in healthy volunteers; assay type: in vivo; details: for Hartnup Amino Acids excretion over 24 hours, Mean / Phenylalanine excretion over 24 hours, Mean: in mg
# T1 construct: SCL6A19 is located in the proximal tubule of the kidney and is responsible for reabsorption of amino acids back into the blood; from tissue; host or cells: Kidney proximal tubule of healthy volunteers (in vivo, endogenous)
# T1 sequence (Q695T7 1-634): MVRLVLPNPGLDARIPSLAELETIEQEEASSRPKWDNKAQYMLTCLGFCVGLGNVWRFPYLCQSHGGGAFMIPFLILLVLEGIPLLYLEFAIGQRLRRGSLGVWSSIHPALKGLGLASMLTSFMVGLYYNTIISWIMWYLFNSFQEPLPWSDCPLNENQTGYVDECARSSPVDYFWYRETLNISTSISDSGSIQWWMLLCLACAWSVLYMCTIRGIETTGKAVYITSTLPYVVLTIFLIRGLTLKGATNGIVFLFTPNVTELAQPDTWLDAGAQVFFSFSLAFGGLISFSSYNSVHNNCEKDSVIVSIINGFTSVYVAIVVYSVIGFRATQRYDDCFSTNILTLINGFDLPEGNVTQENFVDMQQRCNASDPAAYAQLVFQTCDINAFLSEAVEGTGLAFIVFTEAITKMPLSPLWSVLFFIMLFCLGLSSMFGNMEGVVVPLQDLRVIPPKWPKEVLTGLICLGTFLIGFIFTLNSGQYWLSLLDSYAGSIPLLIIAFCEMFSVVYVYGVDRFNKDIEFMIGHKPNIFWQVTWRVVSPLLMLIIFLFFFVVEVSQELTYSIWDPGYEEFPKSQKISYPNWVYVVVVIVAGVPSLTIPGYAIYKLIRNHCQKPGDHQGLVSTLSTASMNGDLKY
# T1 sequence (Q9HBJ8 15-222 partner): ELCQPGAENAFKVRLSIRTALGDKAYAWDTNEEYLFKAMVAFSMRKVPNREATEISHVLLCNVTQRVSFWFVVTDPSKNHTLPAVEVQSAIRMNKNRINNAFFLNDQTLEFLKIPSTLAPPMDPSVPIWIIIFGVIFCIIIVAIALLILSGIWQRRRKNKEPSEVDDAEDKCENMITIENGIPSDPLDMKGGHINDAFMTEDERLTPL
# Experimental: FIG. 3A is a graph of the pharmacodynamic effect of Compound 1 over time in healthy volunteers by measuring changes in total overall SLC6A19 amino acid substrates (Hartnup amino acids) over 14 days of administration of a suspension of the compound at three different doses (25 or 75 mg twice daily [BID] or 150 mg once daily [QD]).
# FIG. 3B is a graph of the pharmacodynamic effect of Compound 1 over time in healthy volunteers by measuring changes in total 24 hour phenylalanine over 14 days of administration of a suspension of the compound at three different doses (25 or 75 mg twice daily [BID] or 150 mg once daily [QD]).
# A suspension formulation of varying doses of Compound 1 (25 or 75 mg twice daily [BID] or 150 mg once daily [QD]) was administered to healthy volunteers. Changes in excretion of phenylalanine or overall SLC6A19 amino acid substrates (Hartnup amino acids) over 24 hours were measured at Day 1, 7 and 14 (FIGS. 3A and 3B). Urinary excretion of Hartnup amino acids over 24 hours increased from 0.4 g w/ PBO to 4.9 g w/ the compound 75 mg BID (13-fold increase) (Table 15A).
# [1] = Plasma levels of Compound 1 over 72 h, suspension versus tablet, fasted or fed, in healthy volunteers; assay type: in vivo; details: human, oral, 100 mg, read-out: Plasma level, Mean; for concentration at 0.5 h: 0.5 h post-dose; for concentration at 1 h: 1 h post-dose; for concentration at 1.5 h: 1.5 h post-dose; for concentration at 2 h: 2 h post-dose; for concentration at 2.5 h: 2.5 h post-dose; for concentration at 3 h: 3 h post-dose; for concentration at 4 h: 4 h post-dose; for concentration at 6 h: 6 h post-dose; for concentration at 8 h: 8 h post-dose; for concentration at 10 h: 10 h post-dose; for concentration at 12 h: 12 h post-dose; for concentration at 24 h: 24 h post-dose; for concentration at 36 h: 36 h post-dose; for concentration at 48 h: 48 h post-dose; for concentration at 72 h: 72 h post-dose; for concentration at 0 h: 0 h post-dose
# Experimental: FIG. 4 is a graph of the pharmacokinetics of Compound 1 over 72 hours in healthy volunteers in fed or fasted states when administering 100 mg of the compound as a suspension formulation or a tablet.
# A suspension formulation (100 mg, fasted) and tablet formulation (100 mg, fasted or fed) of Compound 1 was administered to healthy volunteers. Plasma levels of Compound 1 over 72 was measured (FIG. 4). Post-dose plasma levels are recited in Table 16.
compound,measurement,setting,value
"NC(=O)N1CCC[C@@H](N(C(=O)NCc2ccc(OC(F)(F)F)cc2F)C2CC2)C1 [Cpd 1, (R)-3-(1-cyclopropyl-3-(2-fluoro-4-(trifluoromethoxy)benzyl)ureido) piperidine-1-carboxamide]","Hartnup Amino Acids excretion over 24 hours, Mean","SLC6A19; 25 mg BID suspension, Day 1",2123.44
same,"Phenylalanine excretion over 24 hours, Mean","SLC6A19; 25 mg BID suspension, Day 1",37.38
same,"Hartnup Amino Acids excretion over 24 hours, Mean","SLC6A19; 25 mg BID suspension, Day 7",1835.21
same,"Phenylalanine excretion over 24 hours, Mean","SLC6A19; 25 mg BID suspension, Day 7",35.22
same,"Hartnup Amino Acids excretion over 24 hours, Mean","SLC6A19; 25 mg BID suspension, Day 14",1427.77
same,"Phenylalanine excretion over 24 hours, Mean","SLC6A19; 25 mg BID suspension, Day 14",19.65
same,increase of urinary excretion of Hartnup amino acids over 24 hours,SLC6A19; 75 mg BID suspension versus PBO (0.4 g),13 fold
same,"Hartnup Amino Acids excretion over 24 hours, Mean","SLC6A19; 75 mg BID suspension, Day 1",4472.55
same,"Phenylalanine excretion over 24 hours, Mean","SLC6A19; 75 mg BID suspension, Day 1",105.25
same,"Hartnup Amino Acids excretion over 24 hours, Mean","SLC6A19; 75 mg BID suspension, Day 7",4398.31
same,"Phenylalanine excretion over 24 hours, Mean","SLC6A19; 75 mg BID suspension, Day 7",70.98
same,"Hartnup Amino Acids excretion over 24 hours, Mean","SLC6A19; 75 mg BID suspension, Day 14",4922.75
same,"Phenylalanine excretion over 24 hours, Mean","SLC6A19; 75 mg BID suspension, Day 14",88.64
same,Urinary excretion of Hartnup amino acids over 24 hours,"SLC6A19; 75 mg BID suspension, healthy volunteers",4.9 g
same,"Hartnup Amino Acids excretion over 24 hours, Mean","SLC6A19; 150 mg QD suspension, Day 1",3861.43
same,"Phenylalanine excretion over 24 hours, Mean","SLC6A19; 150 mg QD suspension, Day 1",106.76
same,"Hartnup Amino Acids excretion over 24 hours, Mean","SLC6A19; 150 mg QD suspension, Day 7",6785.54
same,"Phenylalanine excretion over 24 hours, Mean","SLC6A19; 150 mg QD suspension, Day 7",166.71
same,"Hartnup Amino Acids excretion over 24 hours, Mean","SLC6A19; 150 mg QD suspension, Day 14",3737.47
same,"Phenylalanine excretion over 24 hours, Mean","SLC6A19; 150 mg QD suspension, Day 14",72.43
same,concentration at 0.5 h,"[1]; 100 mg suspension, fasted",1840 ng/mL
same,concentration at 1 h,"[1]; 100 mg suspension, fasted",2310 ng/mL
same,concentration at 1.5 h,"[1]; 100 mg suspension, fasted",2440 ng/mL
same,concentration at 2 h,"[1]; 100 mg suspension, fasted",2630 ng/mL
same,concentration at 2.5 h,"[1]; 100 mg suspension, fasted",2620 ng/mL
same,concentration at 3 h,"[1]; 100 mg suspension, fasted",2720 ng/mL
same,concentration at 4 h,"[1]; 100 mg suspension, fasted",2750 ng/mL
same,concentration at 6 h,"[1]; 100 mg suspension, fasted",2090 ng/mL
same,concentration at 8 h,"[1]; 100 mg suspension, fasted",1580 ng/mL
same,concentration at 10 h,"[1]; 100 mg suspension, fasted",1110 ng/mL
same,concentration at 12 h,"[1]; 100 mg suspension, fasted",778 ng/mL
same,concentration at 24 h,"[1]; 100 mg suspension, fasted",216 ng/mL
same,concentration at 36 h,"[1]; 100 mg suspension, fasted",50 ng/mL
same,concentration at 48 h,"[1]; 100 mg suspension, fasted",24.2 ng/mL
same,concentration at 72 h,"[1]; 100 mg suspension, fasted",12.8 ng/mL
same,concentration at 0 h,"[1]; 100 mg tablet, fasted",12.1 ng/mL
same,concentration at 0.5 h,"[1]; 100 mg tablet, fasted",1600 ng/mL
same,concentration at 1 h,"[1]; 100 mg tablet, fasted",2110 ng/mL
same,concentration at 1.5 h,"[1]; 100 mg tablet, fasted",2400 ng/mL
same,concentration at 2 h,"[1]; 100 mg tablet, fasted",2550 ng/mL
same,concentration at 2.5 h,"[1]; 100 mg tablet, fasted",2530 ng/mL
same,concentration at 3 h,"[1]; 100 mg tablet, fasted",2580 ng/mL
same,concentration at 4 h,"[1]; 100 mg tablet, fasted",2580 ng/mL
same,concentration at 6 h,"[1]; 100 mg tablet, fasted",2070 ng/mL
same,concentration at 8 h,"[1]; 100 mg tablet, fasted",1650 ng/mL
same,concentration at 10 h,"[1]; 100 mg tablet, fasted",1250 ng/mL
same,concentration at 12 h,"[1]; 100 mg tablet, fasted",891 ng/mL
same,concentration at 24 h,"[1]; 100 mg tablet, fasted",324 ng/mL
same,concentration at 36 h,"[1]; 100 mg tablet, fasted",59.5 ng/mL
same,concentration at 48 h,"[1]; 100 mg tablet, fasted",29 ng/mL
same,concentration at 72 h,"[1]; 100 mg tablet, fasted",11.4 ng/mL
same,concentration at 0 h,"[1]; 100 mg tablet, fed",12.1 ng/mL
same,concentration at 0.5 h,"[1]; 100 mg tablet, fed",1660 ng/mL
same,concentration at 1 h,"[1]; 100 mg tablet, fed",2220 ng/mL
same,concentration at 1.5 h,"[1]; 100 mg tablet, fed",2320 ng/mL
same,concentration at 2 h,"[1]; 100 mg tablet, fed",2850 ng/mL
same,concentration at 2.5 h,"[1]; 100 mg tablet, fed",2910 ng/mL
same,concentration at 3 h,"[1]; 100 mg tablet, fed",2950 ng/mL
same,concentration at 4 h,"[1]; 100 mg tablet, fed",2860 ng/mL
same,concentration at 6 h,"[1]; 100 mg tablet, fed",2260 ng/mL
same,concentration at 8 h,"[1]; 100 mg tablet, fed",1740 ng/mL
same,concentration at 10 h,"[1]; 100 mg tablet, fed",1270 ng/mL
same,concentration at 12 h,"[1]; 100 mg tablet, fed",963 ng/mL
same,concentration at 24 h,"[1]; 100 mg tablet, fed",329 ng/mL
same,concentration at 36 h,"[1]; 100 mg tablet, fed",90.1 ng/mL
same,concentration at 48 h,"[1]; 100 mg tablet, fed",45 ng/mL
same,concentration at 72 h,"[1]; 100 mg tablet, fed",15 ng/mL
